Measurements as given in patent US5254550A, “Prolinal derivatives and pharmaceutical compositions thereof” (Ono Pharmaceutical Co., Ltd., priority 1986, dated 1993).
Residues, ends and D or L forms follow the SMILES beside them. *: point of attachment. Cbz = O=C(OCc1ccccc1)*; CH2Cl = ClC*

Target: T1, prolyl endopeptidase (Bos taurus, UniProt Q9XTA2)
T1 construct: prolyl endopeptidase which was purified from bovine brain; from tissue; host or cells: bovine brain (purified by the method of J. Biochem., 94, 1179 (1983))
Test: Prolyl Endopeptidase Inhibitory Activity in Vitro
Type: biochemical
Details: prolyl endopeptidase purified from bovine brain; substrate N-benzyloxycarbonyl-glycyl-prolyl-p-nitroanilide; pH 7.5, 37° C., 15 mins preincubation, 405 nm; read-out: Concentration for 50% inhibition IC50
Method: Inhibitory activity of prolyl endopeptidase was measured by the following test system.
A mixed solution of 20 mM tris-HCl buffer (pH 7.5; 935 μl; containing 10 mM EDTA and 10 mM mercaptoethanol), a solution of a compound of the present invention in DMSO (10 μl) and a solution of prolyl endopeptidase which was purified from bovine brain (0.13 unit; prepared by the method described in J. Biochem., 94, 1179 (1983)) in tris-HCl buffer (15 μl) was preincubated for 15 mins at 37° C.
To the solution, 5 mM of N-benzyloxycarbonyl-glycyl-prolyl-p-nitroanilide (40 μl) in a mixture of 40% dioxane-60% water was added. The solution was incubated for 1 min at the same temperature.
Optical absorption (a1) at 405 nm of the solution, and optical absorption (a2) at 405 nm of the solution after more 30 mins' incubation at 37° C. were measured.
Optical absorptions (b1 and b2) of the solutions using DMSO instead of the solution of the compound of the present invention were also measured.
Inhibitory ratio was calculated by the following expression and IC50 (required concentration for 50% inhibition) was obtained (See Protein, Nucleic acid and Enzyme 25(6), 513, 1980). [formula]

T1 sequence (Q9XTA2 whole entry): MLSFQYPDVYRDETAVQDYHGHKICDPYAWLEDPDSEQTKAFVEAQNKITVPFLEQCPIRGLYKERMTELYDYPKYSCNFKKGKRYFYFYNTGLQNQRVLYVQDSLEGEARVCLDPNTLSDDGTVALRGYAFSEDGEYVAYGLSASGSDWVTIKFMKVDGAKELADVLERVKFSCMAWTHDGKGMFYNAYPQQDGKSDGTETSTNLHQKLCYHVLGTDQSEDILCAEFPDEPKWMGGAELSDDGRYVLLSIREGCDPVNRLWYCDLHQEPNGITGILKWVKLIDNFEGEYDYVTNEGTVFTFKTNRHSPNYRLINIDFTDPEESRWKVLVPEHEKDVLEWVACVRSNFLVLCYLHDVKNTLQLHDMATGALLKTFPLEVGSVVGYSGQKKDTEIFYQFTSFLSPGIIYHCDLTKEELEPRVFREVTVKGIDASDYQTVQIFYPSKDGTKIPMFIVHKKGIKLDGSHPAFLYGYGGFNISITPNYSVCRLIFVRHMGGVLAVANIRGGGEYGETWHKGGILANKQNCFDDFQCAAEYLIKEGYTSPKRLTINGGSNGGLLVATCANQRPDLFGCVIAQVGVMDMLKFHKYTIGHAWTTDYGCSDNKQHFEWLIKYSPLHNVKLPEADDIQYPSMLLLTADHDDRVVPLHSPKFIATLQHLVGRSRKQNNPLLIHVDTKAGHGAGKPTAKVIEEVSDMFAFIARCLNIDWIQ

Row | Compound | IC50
1 | O=C[C@@H]1CCCN1C(=O)CCC(=O)NCc1ccccc1 [1 (a), N-[3-(N-benzylcarbamoyl)propanoyl)-L-prolinal] | 0.23 µM
2 | O=C[C@@H]1CCCN1C(=O)CCC(=O)NCC(c1ccccc1)c1ccccc1 [1 (bb), N-[3-[N-(2,2-diphenylethyl)carbamoyl]propanoyl]-L-prolinal] | 1.2 µM
3 | O=C[C@@H]1CCCN1C(=O)CCC(=O)NCCCCCc1ccccc1 [1 (h), N-[3-[N-(5-phenylpentyl)carbamoyl]propanol]-L-prolinal] | 0.07 µM
4 | CN(Cc1ccccc1)C(=O)C=CC(=O)N1CCC[C@H]1C=O [1 (s), N-[3-(N-benzyl-N-methylcarbamoyl)acryloyl]-L-prolinal] | 1.9 µM
5 | O=C[C@@H]1CCCN1C(=O)[C@@H]1CCC[C@H]1C(=O)NCc1ccccc1 [1 (x), N-[(1R,2R)-2-(N-benzylcarbamoyl)cyclopentane-1-carbonyl]-L-prolinal] | 0.014 µM
6 | Cc1ccc(CNC(=O)CCC(=O)N2CCC[C@H]2C=O)cc1 [2 (a), N-[3-[N-(4-methylbenzyl)-carbamoyl]propanoyl]-L-prolinal] | 0.023 µM
7 | O=C[C@@H]1CCCN1C(=O)CCC(=O)NCc1ccco1 [2 (dd), N-[3-[N-(2-furylmethyl)-carbamoyl]propanoyl]-L-prolinal] | 0.79 µM
8 | O=C[C@@H]1CCCN1C(=O)CCC(=O)NCc1ccccc1Cl [2 (e), N-[3-[N-(2-chlorobenzyl)-carbamoyl]propanoyl]-L-prolinal] | 0.16 µM
9 | Cc1ccc(CN(C(=O)CCC(=O)N2CCC[C@H]2C=O)c2ccccc2)cc1 [2 (n), N-[3-[N-(4-methylphenyl-methyl)-N-phenyl-carbamoyl]propanoyl]-L-prolinal] | 0.0019 µM
10 | O=C[C@@H]1CCCN1C(=O)CCC(=O)NCc1cccc2ccccc12 [2 (y), N-[3-[N-(1-naphthyl-methyl)carbamoyl]propanoyl]-L-prolinal] | 0.043 µM
11 | O=C[C@@H]1CCCN1C(=O)CCC(=O)NCCc1ccccc1 [Example 1, N-[3-[N-(2-phenylethyl)carbamoyl]propanoyl]-L-prolinal] | 0.13 µM

System: prolyl endopeptidase
Test: not given
Details: See J. Neurochem., 41, 69 (1983); cited from earlier work

Row | Compound | inhibition of prolyl endopeptidase (in words)
12 | O=C(NCC(=O)N1CCC[C@H]1C(=O)CCl)OCc1ccccc1 [N-benzyloxycarbonyl-glycyl-L-proplyl-chloromethane] (Cbz-Gly-Pro-CH2Cl) | strongly inhibit
